Results: PubChem BioAssay (NCI)
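These data come from cells grown in 96-well plates and exposed to compound for 48 hours at five concentrations. GI50 = concentration required for 50% inhibition of growth. TGI denotes the concentration required for complete inhibition of growth.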

Legend:
Assay in all cases: NCI anticancer screen, dose series, 48 h
[1] = tested on: M14 melanoma
[2] = tested on: NCI-H23 lung
[3] = tested on: KM12 colon
[4] = tested on: SK-MEL-2 melanoma
[5] = tested on: HOP-92 NSCLC
[6] = tested on: NCI-H460 lung
[7] = tested on: MDA-MB-231 breast
[8] = tested on: T-47D breast
[9] = tested on: BT-549 breast
[10] = tested on: UO-31 renal

In the case of `O=C(O)Cc1cc(=O)oc2cc(O)c(Cl)cc12`, the TGI [1] was > 100 µM, the TGI [2] was > 100 µM and the TGI [3] was > 100 µM. The TGI [4] was > 100 µM, the TGI [5] was > 100 µM and the TGI [6] was > 100 µM.

With `CC1C2CC(C(C3C(=O)C4CC3C(C)(C)C4C)C2=O)C1(C)C` (centres undefined) the TGI [1] was > 100 µM, the TGI [2] was > 100 µM and the TGI [3] was > 100 µM. For the same compound, the TGI [7] was > 100 µM, the TGI [8] was > 100 µM and the TGI [5] was > 100 µM. The TGI [6] was > 100 µM, the TGI [9] was > 100 µM and the TGI [10] was > 100 µM.

For `CSc1nc(C)cc(Nc2ccc(O)c(CN3CCCCC3)c2)n1`, the TGI [1] was 31.8 µM, the TGI [2] was > 100 µM and the TGI [3] was > 100 µM. The TGI [8] was > 100 µM, the TGI [5] was > 100 µM and the TGI [9] was > 100 µM. The TGI [10] was > 100 µM.

For `CC1=NC(=Cc2ccc(Cl)cc2)C(=O)N1n1c(-c2ccccc2)nc2ccccc2c1=O`, the TGI [1] was > 100 µM, the TGI [2] was 96 µM and the TGI [3] was > 100 µM. For the same compound, the TGI [7] was > 100 µM, the TGI [8] was 74.3 µM and the TGI [6] was 60.7 µM. For the same compound, the TGI [9] was > 100 µM and the TGI [10] was > 100 µM.

For `CN(C(=O)C1=CCCCCC1)c1ccccc1I`, the TGI [1] was > 100 µM, the TGI [2] was > 100 µM and the TGI [3] was 93.9 µM. The TGI [7] was > 100 µM, the TGI [4] was > 100 µM and the TGI [8] was > 100 µM. For the same compound, the TGI [6] was > 100 µM and the TGI [10] was > 100 µM.

`Oc1cn(-c2ccc(Cl)cc2)nc1-c1nnc(Nc2ccccc2)o1` showed a TGI [1] of 37.5 µM, a TGI [2] of 27.3 µM and a TGI [3] of 37.2 µM. For the same compound, the TGI [7] was 27.4 µM, the TGI [4] was 38.3 µM and the TGI [8] was 50.3 µM. It also gave a TGI [6] of 39.6 µM and a TGI [10] of 46.1 µM.

With `COc1ccc(/C=C2/C(=O)N(C(=O)c3ccc(Cl)cc3)N=C2C)cc1OC` the TGI [1] was > 100 µM, the TGI [2] was > 100 µM and the TGI [3] was > 100 µM. The TGI [4] was > 100 µM, the TGI [5] was > 100 µM and the TGI [6] was > 100 µM. For the same compound, the TGI [10] was > 100 µM.

For `CCOC(=O)[C@H]1C[C@@H](C(=O)c2ccccc2)N2N=C(c3ccc(Br)cc3)C=C[C@H]12`, the TGI [1] was > 100 µM, the TGI [2] was > 100 µM and the TGI [3] was > 100 µM. For the same compound, the TGI [7] was > 100 µM, the TGI [4] was > 100 µM and the TGI [8] was > 100 µM. For the same compound, the TGI [6] was > 100 µM, the TGI [9] was > 100 µM and the TGI [10] was > 100 µM.

With `CCCCOC(=O)/C(CC(=O)C=C(C)C)=N\NS(=O)(=O)c1ccc(C)cc1` the TGI [1] was > 100 µM, the TGI [2] was > 100 µM and the TGI [3] was > 100 µM. For the same compound, the TGI [4] was > 100 µM, the TGI [5] was > 100 µM and the TGI [6] was > 100 µM. For the same compound, the TGI [10] was > 100 µM.

`O=C1C(NCCc2cc(Br)c(O)c(Br)c2)=CC(=O)c2ncccc21` showed a TGI [1] of 8.36 µM, a TGI [2] of 2.98 µM and a TGI [3] of 20.1 µM. It also gave a TGI [7] of 29.5 µM, a TGI [4] of 29.9 µM and a TGI [8] of 52 µM. For the same compound, the TGI [5] was 47.5 µM, the TGI [6] was 5.41 µM and the TGI [10] was 41.6 µM.

In the case of `CSC1=N/C(=C\c2cccs2)C(=O)N1CN1CCCCC1`, the TGI [1] was > 100 µM, the TGI [2] was > 100 µM and the TGI [3] was > 100 µM. For the same compound, the TGI [7] was > 100 µM, the TGI [4] was > 100 µM and the TGI [5] was 96.5 µM. The TGI [10] was > 100 µM.

In the case of `CCCCCCC(N)(CCCCCC)C(=O)Nn1c(C)ccc1C`, the TGI [1] was > 100 µM, the TGI [2] was > 100 µM and the TGI [3] was > 100 µM. The TGI [7] was > 100 µM, the TGI [4] was > 100 µM and the TGI [8] was > 100 µM. For the same compound, the TGI [6] was > 100 µM, the TGI [9] was > 100 µM and the TGI [10] was > 100 µM.

For `Cc1ccc(-c2c(C#N)c(-c3ccc(N(C)C)cc3)c(C#N)c(=O)n2NS(=O)(=O)c2ccccc2)cc1`, the TGI [1] was > 100 µM, the TGI [3] was > 100 µM and the TGI [7] was > 100 µM. For the same compound, the TGI [4] was > 100 µM, the TGI [5] was > 100 µM and the TGI [6] was > 100 µM. The TGI [9] was > 100 µM.

With `CCC(=O)N(c1ccccc1)C(C)CN1CCC(O)(c2ccccc2)CC1` (centres undefined) the TGI [1] was > 100 µM, the TGI [2] was > 100 µM and the TGI [7] was > 100 µM. The TGI [4] was > 100 µM, the TGI [8] was > 100 µM and the TGI [5] was > 100 µM. For the same compound, the TGI [9] was > 100 µM and the TGI [10] was > 100 µM.

For `CCn1c(=O)c2c(=O)[nH][nH]c2c2ccccc21`, the TGI [2] was > 100 µM, the TGI [3] was > 100 µM and the TGI [7] was > 100 µM. For the same compound, the TGI [5] was > 100 µM, the TGI [6] was > 100 µM and the TGI [9] was > 100 µM. For the same compound, the TGI [10] was > 100 µM.

`COc1ccc2c(OC)c3ccoc3nc2c1O` was tested, and the TGI [1] was > 100 µM, the TGI [2] was > 100 µM and the TGI [3] was > 100 µM. The TGI [4] was > 100 µM, the TGI [6] was > 100 µM and the TGI [10] was > 100 µM.

In the case of `Clc1cc(Cl)cc(N2N=C(c3cccc(Nc4ccncc4)c3)CC2c2ccccc2)c1` (centres undefined), the GI50 [2] was 1.81 µM, the TGI [2] was 3.91 µM and the GI50 [3] was 1.86 µM. It also gave a TGI [3] of 3.7 µM, a GI50 [8] of 1.73 µM and a TGI [8] of 4.2 µM. The GI50 [5] was 1.49 µM, the TGI [5] was 3.07 µM and the GI50 [6] was 1.8 µM. It also gave a TGI [6] of 3.37 µM, a GI50 [9] of 6.23 µM and a TGI [9] of 28.4 µM.

Work on `CC(SC1=CC(=O)c2c(Cl)ccc(O)c2C1=O)C(=O)O` (centres undefined) yielded a TGI [3] of 38.3 µM, a TGI [4] of 33.6 µM and a TGI [5] of 38.6 µM. The TGI [6] was 69.4 µM.

`COC(=O)c1c/c(=N\NC(=O)CC(=O)Nc2ccccc2Cl)c2ccccc2o1` was tested, and the TGI [1] was > 100 µM, the TGI [2] was > 100 µM and the TGI [3] was > 100 µM. The TGI [4] was > 100 µM, the TGI [6] was > 100 µM and the TGI [10] was > 100 µM.

`CCc1cc(Cc2cc(CC)c(NC(=O)C3=CC(=O)CC(c4ccc(OC)cc4)O3)c(CC)c2Cl)c(Cl)c(CC)c1NC(=O)C1=CC(=O)CC(c2ccc(OC)cc2)O1` (centres undefined) was tested, and the TGI [1] was 31.6 µM, the TGI [2] was 32 µM and the TGI [3] was 26.9 µM. It also gave a TGI [4] of 36.7 µM, a TGI [5] of 39.7 µM and a TGI [6] of 32.6 µM. The TGI [10] was 30.8 µM.

In the case of `O=C(Cc1ccccc1)N/N=C(/CCN1CCCC1)CC(c1ccccc1)c1c(O)c2ccccc2oc1=O` (centres undefined), the TGI [1] was > 100 µM, the TGI [2] was > 100 µM and the TGI [3] was > 100 µM. For the same compound, the TGI [7] was > 100 µM, the TGI [4] was > 100 µM and the TGI [5] was > 100 µM. The TGI [9] was > 100 µM and the TGI [10] was > 100 µM.

For `CC(=O)c1c2c(cc3c1CC1(Cc4cc5c(cc4C1)CCC5)C3)CCC2`, the TGI [1] was > 100 µM, the TGI [2] was > 100 µM and the TGI [7] was > 100 µM. The TGI [4] was > 100 µM, the TGI [8] was > 100 µM and the TGI [5] was > 100 µM. The TGI [6] was > 100 µM and the TGI [10] was > 100 µM.

With `O=S(=O)(CC1=NC2C=CC=CC2N=C1)NCc1ccccc1` (centres undefined) the TGI [1] was > 100 µM, the TGI [2] was > 100 µM and the TGI [3] was > 100 µM. The TGI [4] was > 100 µM, the TGI [5] was > 100 µM and the TGI [6] was > 100 µM.

In the case of `COc1ccc2c(c1)c(Cc1c(C)n(C)c3ccc(OC)cc13)c(C)n2C`, the TGI [1] was > 100 µM, the TGI [2] was > 100 µM and the TGI [3] was > 100 µM. For the same compound, the TGI [4] was > 100 µM, the TGI [5] was > 100 µM and the TGI [6] was > 100 µM. The TGI [10] was > 100 µM.

`CC(=O)OC1[C@H]2c3cc4c(cc3CN3CCC(C[C@@H]1OC(C)=O)C23)OCO4` (some centres undefined) was tested, and the TGI [1] was > 75 µM, the TGI [2] was > 75 µM and the TGI [3] was > 75 µM. For the same compound, the TGI [6] was > 75 µM and the TGI [10] was > 75 µM.

`O=C(CCN(CCO)CCO)Nc1ccc2c(c1)C(=O)c1ccc(NC(=O)CCN(CCO)CCO)cc1C2=O` was tested, and the TGI [1] was 38.3 µM, the TGI [2] was > 100 µM and the TGI [3] was 31.2 µM. The TGI [4] was 16.8 µM, the TGI [5] was > 100 µM and the TGI [6] was 22.7 µM. It also gave a TGI [10] of 22.1 µM.

For `CCCOC(=O)c1cc(C(=CCC[C@H]2CC[C@@]3(C)[C@@H](CC[C@@H]4[C@@H]3CC[C@]3(C)[C@@H](C(C)CCCC(C)C)CC[C@@H]43)C2)c2cc(Cl)c(O)c(C(=O)OCCC)c2)cc(Cl)c1O` (some centres undefined), the TGI [2] was > 50 µM, the TGI [3] was > 50 µM and the TGI [7] was > 50 µM. The TGI [4] was > 50 µM, the TGI [8] was > 50 µM and the TGI [6] was > 50 µM. The TGI [9] was > 50 µM.
